Where two headings read alike, the source gives them in different places.
Assays:
[1] = tested on: KB cells; experiment: Cytostatic activity on KB cells; assay type: cell-based; conditions: Homo sapiens, read-out: IC50 KB
Experimental: (§1) All cells were grown in Eagle's minimum essential medium supplemented with 10% fetal bovine serum with the exception of HL-60 and K562-4 cells which were grown in RPMI 1640 medium supplemented with 10% fetal bovine serum. The KB and MH1 C1 cells, from a human nasopharyngeal carcinoma and rat hepatoma, respectively, were from American Type Culture Collection. The ChaGo cells, a human lung carcinoma, was generously provided by Dr. A. H. Tashjian. The human promyeloblastic leukemia cells, K562-4 were kindly supplied by Dr. Bismarck Lozzio. HL-60 cells, a human promyelocytic leukemia, and P388 cells, a mouse leukemia, were obtained from Dr. Y.-C. Cheng. The 77 cells were put into culture by us by excising the 7777, Morris hepatoma from a rat graciously supplied by the late Dr. H. P. Morris.
(§2) Cells were transferred or removed from monolayers for counting after a one or two minute incubation with 0.02% sodium ethylenediamine tetraacetate in phosphate-buffered saline to dislodge the cells. Flasks were seeded at a density of 1×10^3 cells per cm^2 or 2×10^4 per milliliter for suspension cultures. The HL-60 and K562-4 suspension cultures were used about 24 hours after seeding. The compounds to be tested were diluted to various concentrations and added to the monolayer cultures. All of the test compounds were dissolved in 10% dimethyl sulfoxide (DMSO) at concentrations that would give a final DMSO concentration of 0.1%. Control flasks contained 0.1% DMSO. Control cell replication was followed until approximately three doublings had occurred, and then all of the treated cells were counted.
(§3) The KB cells represented cells with low alkyl cleavage activity (less than the detectable level of 0.1-0.2 units per milligram protein by our assay procedure) and the 77 cells represented cells similar to normal cells with relatively high alkyl cleavage activity (1.6 units per milligram of protein). Our value for the cleavage activity of cultured 77 cells agrees well with the value of 1.4 units per milligram of protein reported by Soodsma et al, Cancer Res. 30, 309 (1970), for freshly excised 7777 Morris hepatoma tissue. In further confirmation of our assay procedure, we obtained a value of 12.6±4.1 units per milligram of protein in excised rat liver compared to 7.3 units per milligram of protein in rat liver measured by Soodsma et al.

[2] = tested on: 77 cells; experiment: Cytostatic activity on 77 cells; assay type: cell-based, rat; conditions: for IC50: 77 cells, after controls doubled three times; for 77/KB: ratio of IC50 values ± standard error of the quotient
Experimental: as §1, §2, §3

[3] = tested on: Protein Kinase C; experiment: Protein Kinase C activity (32P incorporation into histone); assay type: biochemical, human (HL-60 cells)
Experimental: PKC was prepared and assayed as described previously. See Daniel, L. W. et al., Biochem. Biophys. Res. Comm. 151, 291 (1988). In brief, HL-60 cells were grown in 75 milliliter flasks, harvested and washed with ice-cold normal saline. After centrifugation (600×g, 5 minutes, 4° Centigrade), the cell pellet was resuspended (20 mM Tris-HCl, pH 7.5, 2 mM EDTA, 10 mM EGTA, 50 mM 2-mercaptoethanol, 2 mM phenylmethylsulfonyl fluoride) and sonicated for 20 s with a stepped microprobe sonciator. Unbroken cells were removed by centrifugation as above and the supernatant centrifuged (65,000×g, 90 minutes, 4° Centigrade). The supernatant from this step (cytosol) was then fractionated on a 1×8 cm DEAE-Sephacel column after addition to sucrose to a final concentration of 10%. After equilibrating the column (20 mM Tris, pH 7.5, 0.2 mM EDTA, 0.2 mM EGTA, 50 mM 2-mercaptoethanol, 10% sucrose), the sample was loaded and unbound material was washed through with 40 milliliters of the equilibrating buffer. The PKC was eluted by a gradient from 0-0.5M NaCl in the buffer described above. Fractions of 1 milliliter were collected at 25 milliliters per hour and 0.05 milliliter aliquots assayed for PKC activity as described below. The fractions with the highest activity were pooled and used in further experiments.
The assays were done at pH 7.5 in a total volume of 0.25 milliliter and all tubes contained 25 mM Tris, 10 mM MgCl2, 40 μg per milliliter histone, 10 μM ATP (including 1 μCi of [gamma-^32 P]-ATP), 0.1 mM CaCl2, 20 μg per milliliter phosphatidylserine, 0.05 milliliter of the PKC preparation and 2.5 μM of oleoylacetylglycerol (OAG). Enzymatic activity was determined as the incorporation of ^32 P from [gamma-^32 P]-ATP) into histone in the presence of Ca^2+, phosphatidylserine, and OAG. Reactions were initiated by the addition of the enzyme preparation and halted after 20 minutes at 30° Centigrade by the addition of 0.05 milliliters of bovine serum albumin (10 milligrams per milliliter) and 1 milliliter 25% ice-cold trichloroacetic acid. The tubes were kept on ice and then filtered in a millipore vacuum box using Millipore® HA filters and washed with 25% trichloroacetic acid. The radioactivity bound to the filters was determined by scintillation spectrometry in 5 milliliters Budget Solve®. […] The analog to be tested was dissolved in ethanol, and added directly into the reaction mixture before the addition of PKC. As a control, 0.1% ethanol was included in the samples with the enzyme but with no inhibitor.

[4] = tested on: HL60 human leukemia cell line; experiment: HL60 cell growth inhibition (trypan blue, 48 h); assay type: cell-based; conditions: Homo sapiens, HL-60, 48 h, HL60, 48 hours; read-out: ID50 (the source's name)
Experimental: A number of the compounds disclosed herein have been tested against the HL60 human leukemia cell line to assess their cytotoxic potential. These analogs were investigated in parallel with ET-18-OMe which was used as the reference compound. The methodologies used in this investigation were the same as described in A. Noseda, M. Berens, C. Piantadosi, and E. J. Modest, Lipids 22, 878-883, 1987. In brief, HL60 cells at a concentration of […] were incubated in wells with one milliliter medium with the experimental drug in parallel with the same concentration of cells with ET-18-OMe (standard) or EtOH (control). After 48 hours of incubation the cells were counted using the trypan blue dye exclusion technique to determine the effect of the drug on cell growth. The experimental drug and ET-18-OMe were tested at the same concentrations, e.g., 10, 5, 2.5 and 1.25 μM.

[5] = KB cells, after controls doubled three times

Row | Structure (SMILES) | IC50 [1, 5] [nM] | Percent Protein Kinase C Activity Retained ([3]; 1.25 μM) [%] | Percent Protein Kinase C Activity Retained ([3]; 2.5 μM) [%] | Percent Protein Kinase C Activity Retained ([3]; 5.0 μM) [%] | Percent Protein Kinase C Activity Retained ([3]; 10.0 μM) [%] | Percent Protein Kinase C Activity Retained ([3]; 20.0 μM) [%] | Percent Protein Kinase C Activity Retained ([3]; 40.0 μM) [%] | other results
1 | COC(COc1cccc2ccccc12)C[N+](C)(C)CCO (stereo not shown) [E] | – | 99 | 99 | 83 | 89 | 87 | 90 | –
2 | CCCCCCCCCCCCCCCCSCC(C[N+](C)(C)CCO)OC (stereo not shown) [A] | – | 97 | 90 | 73 | 60 | 54 | 42 | –
3 | CCCCCCCCCCCCCCCCOCCC[N+](C)(C)C [KLM 69, 3-hexadecyloxy-N,N,N-trimethyl-1-propyl ammonium bromide] | – | – | – | – | – | – | – | IC50 [4]: 1600 nM
4 | CCCCCCCCCCCCCCCCSCC(C[N+](C)(C)CCCO)OCC (stereo not shown) [C] | – | 78 | 64 | 67 | 60 | 59 | 37 | –
5 | CC1(C)OCC(C[N+](C)(C)CCO)O1 (stereo not shown) [F] | – | 88 | 84 | 87 | 88 | 96 | 87 | –
6 | CCCCCCCCCCCCCCCCOCC(C[N+]1(C)CCC(O)CC1)OCC (racemic) [CJM PIPER, (±)-1-methyl-1-(3-hexadecyloxy-2-ethoxypropyl)-4-hydroxy piperidinium iodide] | – | – | – | – | – | – | – | IC50 [4]: 2800 nM
7 | CCCCCCCCCCCCCCCCCCSCC(C[N+](C)(C)CCCO)OC (racemic) [CJM 44, (±)-3-octadecylthio-2-methoxy-N,N-dimethyl-N-gamma-hydroxypropyl-1-propyl ammonium bromide] | – | – | – | – | – | – | – | IC50 [4]: 3400 nM
8 | CCCCCCCCCCCCCCCCOCCC[n+]1ccccc1 [KLM 70, 1-(3-hexadecyloxypropyl) pyridium bromide] | – | – | – | – | – | – | – | IC50 [4]: 800 nM
9 | CCCCCCCCCCCCCCCCCC1OCC(C[N+](C)(C)CCCO)O1 (racemic) [CJM 60, (±)-N-(2-heptadecyl-1,3-dioxolan-4-yl)methyl-N,N-dimethyl-gamma-hydroxypropyl ammonium bromide] | – | – | – | – | – | – | – | IC50 [4]: 6500 nM
10 | C[N+](C)(CCO)CCOc1ccccc1 [IX, 2-Phenoxy-N,N-dimethyl-N-β-hydroxyethyl-1-ethyl ammonium iodide] | – | – | – | – | – | – | – | IC50 ([1]; KB): > 100000 nM
11 | CCCCCCCCCCCCCCCCSCC(C[N+](C)(C)C)OC (stereo not shown) [D] | – | 112 | 88 | 81 | 74 | 54 | 29 | –

The next lines start with results.

Row | IC50 [1, 5] [nM] | Percent Protein Kinase C Activity Retained ([3]; 1.25 μM) [%] | Percent Protein Kinase C Activity Retained ([3]; 2.5 μM) [%] | Percent Protein Kinase C Activity Retained ([3]; 5.0 μM) [%] | Percent Protein Kinase C Activity Retained ([3]; 10.0 μM) [%] | Percent Protein Kinase C Activity Retained ([3]; 20.0 μM) [%] | Percent Protein Kinase C Activity Retained ([3]; 40.0 μM) [%] | Structure (SMILES) | other results
12 | 440 ± 110 | – | – | – | – | – | – | CCCCCCCCCCCCCCCCOCC[N+](C)(C)CCCCO.[I-] [VII, 2-hexadecyloxy-N,N-dimethyl-N-delta-hydroxybutyl-1-ethyl ammonium iodide] | IC50 [2]: 2270 ± 930 nM; 77/KB [2]: 5.2 ± 2.50
13 | – | 44 | 43 | 26 | 12 | 9 | 9 | CCCCCCCCCCCCCCCCCC1OCC(C[N+](C)(C)CCCO)O1 (stereo not shown) [G] | –
14 | 260 ± 50 | – | – | – | – | – | – | CCCCCCCCCCCCCCCCOCC(C[N+](C)(C)CCO)OC (stereo not shown) [XII] | IC50 [2]: 1270 ± 410 nM; 77/KB [2]: 4.9 ± 1.84
15 | – | 107 | 95 | 87 | 64 | 42 | 29 | CCCCCCCCCCCCCCCCOCC(C[N+](C)(C)CCO)OC (stereo not shown) [H] | –
16 | 320 ± 120 | – | – | – | – | – | – | CCCCCCCCCCCCCCOCC[N+](C)(C)CCO.[I-] [IV, 2-tetradecyloxy-N,N-dimethyl-N-β-hydroxyethyl-1-ethyl ammonium iodide] | IC50 [2]: 1530 ± 230 nM; 77/KB [2]: 4.8 ± 1.94
17 | 780 ± 30 | – | – | – | – | – | – | CCCCCCCCCCCCOCC[N+](C)(C)CCO.[I-] [III, 2-dodecyloxy-N,N-dimethyl-N-β-hydroxyethyl-1-ethyl ammonium iodide] | IC50 [2]: 4730 ± 870 nM; 77/KB [2]: 6.1 ± 1.15
18 | 16000 | – | – | – | – | – | – | CCCCCCCCCCCCCCCCCC(=O)OCC[N+](C)(C)CCO [II, 2-octadecanoyloxy-N,N-dimethyl-N-β-hydroxyethyl-1-ethyl ammonium iodide] | –
19 | 330 ± 120 | – | – | – | – | – | – | CCCCCCCCCCCCCCCCOCC[N+](C)(C)CCO.[I-] [V, 2-hexadecyloxy-N,N-dimethyl-N-β-hydroxyethyl-1-ethyl ammonium iodide] | IC50 [2]: 1420 ± 500 nM; 77/KB [2]: 4.3 ± 2.15

Reference: patent publication US5614548A, “Quaternary amine containing ether or ester lipid derivatives and therapeutic compositions” (priority 1994, dated 1997)
